Data as given in patent US20040077709A1, “Neuronal death inhibitors” (DAIICHI PHARMACEUTICAL CO., LTD., priority 1999, published 2004).

Assays:
male mice = conditions: oral; cited from earlier work
EL mice (EL[s]) = assay: DNA fragmentation (TdT labeling) in brain sections of EL mice after oral nefiracetam; type: in vivo; conditions: EL[s] mice aged 30 weeks, 10 mg/kg oral once a day
Excerpt: Employed were three groups each constituting 6 mice aged 30 weeks, that is, EL mice (EL[s]) given an epileptogenic stimulus once a week and thus having a low threshold, EL mice (EL[ns]) not given an epileptogenic stimulus and free from epileptic seizure at least during observation and DDY mice as a control. Each group was compared with that consisting of 40 to 50 week old mice in order to omit the influence of aging. A section of 10 μm was fixed to a gelatin-coated sliding glass in a cryostat, followed by permeabilization with 0.1% sodium citrate and 0.1% Triton X-100 at 4° C. for 5 minutes. DNA fragmentation was detected by polymerizing a fluorescein-labeled nucleotide with the 3′-OH ends of the cleaved DNA by using terminal transferase (TdT). Reaction with an anti-fluorescein antibody conjugated with peroxidase (PD) or alkali phosphatase (AP) developed color, thereby enabling detection by an optical microscope. As a negative control, TdT(−) and as a positive control, a sample treated with DNAaseI were employed. Nefiracetam was orally administered to the test group (aged 30 weeks, EL[s]) once (10 mg/kg) a day. While thus controlling the occurrence of epileptic seizure, a relationship between the nefiracetam administration terms (1, 3, 5 and 7 days) and appearing frequency of DNA fragmentation was observed.
As a result, DNA fragmentation was detected from neither DDY mice aged 30 weeks (adult) nor those aged 40 weeks (having an influence of aging) which served as a negative control. In the EL mice (EL[s]) having epileptic seizure, whether they were aged 30 weeks or 40 weeks, DNA fragmentation was recognized from their hippocampus and parietal cortex. In the EL mice (El[ns]) free from epileptic seizure, whether they were aged 30 weeks or 40 weeks, DNA fragmentation was recognized in only a narrower region at a lower frequency than the EL[s]. In their hippocampus, no DNA fragmentation was recognized.
EL mice serve as a model of the region-specific secondary generalized epilepsy. Although having no severe tissue injury, they are known for accelerated production of free radicals in the hippocampus and parietal cortex constituting a partial complex seizure, a rise in NO and site-specific expression of the immediately early genes (c-fos, zif) during an epileptogenicity acquiring procedure.

[1] = five days after the administration, FIG. 2
[2] = single administration (one day), FIG. 1

Cc1cccc(C)c1NC(=O)CN1CCCC1=O [nefiracetam, 2-oxo-1-pyrrolidinylacetic acid 2,6-dimethylanilide]
acute toxicity (male mice): 2,005 mg/kg
DNA fragmentation in the hippocampus (EL mice (EL[s]); [1]): disappeared
DNA fragmentation in the parietal cortex (EL mice (EL[s]); [1]): no change
DNA fragmentation in the hippocampus (EL mice (EL[s]); [2]): recognized
DNA fragmentation in the parietal cortex (EL mice (EL[s]); [2]): recognized
